# Data published in ChEMBL document CHEMBL1144833, “Synthesis and evaluation of novel aromatic substrates and competitive inhibitors of GABA aminotransferase” (Bioorg Med Chem Lett, 2008).
# Assays:
# [1] = biological target: T1, 4-aminobutyrate aminotransferase, mitochondrial (Homo sapiens, UniProt P80404); assay: Activity at GABA-AT assessed as substrate activity relative to gamma amino butyric acid; design: concentration or dose not given beside the values
# [2] = biological target: T1, 4-aminobutyrate aminotransferase, mitochondrial; assay: Inhibition of GABA-AT
# T1 sequence (P80404 whole entry): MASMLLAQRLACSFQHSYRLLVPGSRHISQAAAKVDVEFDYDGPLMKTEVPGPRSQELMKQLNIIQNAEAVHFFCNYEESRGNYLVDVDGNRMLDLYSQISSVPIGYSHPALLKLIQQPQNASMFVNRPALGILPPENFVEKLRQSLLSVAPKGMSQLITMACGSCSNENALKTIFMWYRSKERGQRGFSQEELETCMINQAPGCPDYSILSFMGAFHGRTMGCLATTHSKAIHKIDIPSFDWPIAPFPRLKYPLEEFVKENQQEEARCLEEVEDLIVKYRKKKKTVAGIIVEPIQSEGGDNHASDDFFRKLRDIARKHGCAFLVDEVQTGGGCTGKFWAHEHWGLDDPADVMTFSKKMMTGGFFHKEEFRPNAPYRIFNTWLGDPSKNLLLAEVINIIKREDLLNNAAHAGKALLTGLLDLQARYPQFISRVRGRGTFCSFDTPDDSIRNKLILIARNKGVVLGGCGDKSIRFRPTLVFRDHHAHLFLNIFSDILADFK
Compound,Relative stimulatory activity [1] [%],IC50 [2] [mM]
Nc1ccccc1C(=O)O [ANTHRANILIC ACID],0,> 5
Nc1cccc(C(=O)O)c1 [3-AMINOBENZOIC ACID],0,> 5
NCc1ccccc1C(=O)O,0,> 5
NCc1cccc(CC(=O)O)c1,0.78,> 5

# Next, values leading:
Relative stimulatory activity [1] [%],IC50 [2] [mM],Compound
3.42,> 5,NCc1cccc(C(=O)O)c1
5.65,> 5,NCc1ccccc1CC(=O)O
0,> 5,Nc1cccc(CC(=O)O)c1
